Measured values published in paper PMC5915149, “The role of oxidative stress in activity of anticancer thiosemicarbazones” (Oncotarget, 2018).
Like-named read-outs stand apart in the source and are kept apart here.

Key:
[1] = tested on: NHDF; set-up: method as in PMID 25329549; settings: 96 h incubation, MTS; cited from earlier work
[2] = tested on: MCF-7; assay: MTS antiproliferative assay, MCF-7 (with or without added metal ions); type: cell-based, human
Procedure: (§1) The cells were seeded in 96-well plates (Nunc) at a density of 3,500 cells/well (HCT116 and MCF-7) and 3,000 cells/well (NHDF) and incubated at 37° C for 24 h. The assay was performed following a 96 h incubation with varying concentrations of the compounds that were being tested. Then, 20 µL of CellTiter 96® AQueous One Solution-MTS (Promega) was added to each well (with 100 µL DMEM without phenol red) and incubated for 1 h at 37° C. The optical densities of the samples were analyzed at 490 nm using a multi-plate reader (Synergy 4, Bio Tek). Results were expressed as a percentage of the control and calculated as the inhibitory concentration (IC50) values (using GraphPad Prism 5). The IC50 parameter was defined as the compound concentration that was necessary to reduce the proliferation of cells to 50% of the untreated control. Each individual compound was tested in triplicate in a single experiment with each experiment being repeated three or four times.
(§2) The HCT116 and MCF-7 cells were seeded in 96-well plates (Nunc) at a density of 3,500 cells/well and incubated at 37° C for 24 h. The MTS assay was performed following a 96 h incubation with varying concentrations of the tested compounds. Additionally, a 20 µM solution of CuSO4, FeSO4 or FeCl3 was added into wells with the tested compounds. The results were expressed as a percentage of the control and calculated as the inhibitory concentration (IC50) values using GraphPad Prism 5. Each individual compound was tested in triplicate in a single experiment with each experiment being repeated three times.

[3] = tested on: HCT116; assay: MTS antiproliferative assay, HCT116 (with or without added metal ions); type: cell-based, human
Procedure: as §1, §2

[4] = tested on: MnSOD; assay: mRNA expression (Real-Time PCR) of MnSOD; type: cell-based, human; settings: HCT116, TSC 1 µM, 12 or 24 h
Procedure: (§3) The HCT116 cells were seeded in 3 cm Petri dishes (Nunc) at a density of 0.5·10^6 cells/well and incubated overnight. Next, the medium was removed and solutions of TSC (1 μM) and DOX (5 μM) were added. After 12 or 24 h, total RNA was isolated from the cells using TRIzol Reagent (Ambion) according to the manufacturer’s instructions. cDNA synthesis was performed with 5 μg of total RNA using a GoScript™ Reverse Transcriptase kit (Promega) and Oligo(dT)23 Primers (Sigma). The Real-Time PCR was performed with a CTX96 Touch™ Real-Time PCR Detection System (Biorad) in a 20 μL reaction volume. The reaction consisted of PowerUp™ SYBR® Green Master Mix (Applied Biosystems), a primer pair mix (0.5 μM each) and 1 μL of cDNA. All primer pair sequences were purchased from Sigma-Aldrich and are listed in Supplementary Table 2. The experiment was performed under the following conditions: initial denaturation at 95° C for 120 sec; followed by 40 denaturation cycles at 95° C, 15 sec; annealing (primer-specific temperature for 30 sec) and extension at 72° C for 60 sec. Data was analyzed based on a comparison of the expression of the target genes to a reference gene – β-actin, using the 2^–ΔΔCT method. The experiments were performed at least three times.

[5] = tested on: HCT116 cells; assay: Time dependent measurement of ROS level; type: cell-based, human; settings: 1 µM; 3, 6, 9, 12, 24 h
Procedure: To determine the intracellular levels of ROS, HCT116 cells were seeded onto black 96-well plates (Corning) at a density of 9,000 cells/well and incubated at 37° C. After an overnight incubation, the solutions of the tested compounds: 1a-c, 2 a-b, 3 a-c, Dp44mT (1 μM) and DOX (5 μM) were added and incubated for 3, 6, 9, 12, and 24 h in a kinetic experiment. The generation of ROS was measured using a CellROX® Green Reagent (Molecular Probes™). Additionally, the quantity of cells in each well was determined using Hoechst 33342 (Molecular Probes™). The solutions of the tested compounds were removed and 100 µL of CellROX Green Reagent and Hoechst 33342 at a final concentration of 5 μM were added to each well. Then, the cells were incubated for 30 min at 37° C. The fluorescence was measured using a multi-plate reader (Synergy 4, Bio Tek) at 485 nm excitation and a 520 nm emission for CellROX Green Reagent and a 345 nm excitation laser and a 485 nm emission filter for Hoechst 33342. The experiments were performed three to four times. ROS levels were expressed as the percentage of the control cells level.

[6] = tested on: calf-thymus DNA (CT-DNA); assay: Intercalation, absorption spectra with CT-DNA; type: binding; settings: for % hypochromism / Changes in absorbance / Δε: bound to CT-DNA; for blue/red shift: wavelengths of maximum absorption, compound alone vs DNA-bound
Procedure: For the DNA binding studies, Calf-thymus DNA (CT-DNA) was purchased from Sigma Aldrich. The lyophilized CT-DNA was dissolved in 10 mM Tris-HCl, pH 7.9, mixed gently and left overnight at 4° C. The purity of the CT-DNA solution was determined by measuring the ratio of UV absorbance at 260 and 280 nm. […] Then, the concentration of CT-DNA was determined from the absorbance at 260 nm using an extinction coefficient of 6600 M^–1cm^–1. The tested TSC and DOX were dissolved in DMSO to a concentration of 8.35 mM, which was then used as the stock solution for preparing the various concentrations (25, 12.5, 6 and 3 µM) in 1 mL in 10 mM of Tris-HCl (pH 7.9). Afterwards, 18 µM CT-DNA was added to the prepared solutions, which were incubated for 1.5 h at 37° C with occasional vortexing. The absorption spectra were measured using a Hitachi U-2900 spectrophotometer in range of 200–500 nm. All absorption spectra were imported and compared in OriginPro 8.0.

[7] = tested on: p21; assay: Western blot of p21; type: cell-based, human; settings: HCT116, 1 µM
Procedure: (§4) The HCT116 cells were seeded in 3 cm Petri dishes (Nunc) at a density of 0.5·10^6 cells/well and incubated overnight. The next day, solutions of TSC (1 μM) and DOX (5 μM) were added and the cells incubated for 24 or 48 h. Cells were harvested by trypsinization and washed with cold PBS. Next, the cells were centrifuged and suspended in an RIPA buffer (Thermo Scientific) containing Halt Protease Inhibitor Cocktail (Thermo Scientific), Halt Phosphatase Inhibitor Cocktail (Thermo Scientific) along with 0.5 M EDTA and lysed for 20 min on ice. Then, the lysates were sonicated, centrifuged at 10,000 rpm for 10 min at 4° C and the supernatants were collected for further analysis. The protein concentration was determined using a Micro BCA™ Protein Assay Kit (Thermo Scientific) according to the manufacturer’s instructions. Equal amounts of the proteins (20 μg) were electrophoresed on SDS-Page gels and transferred onto a nitrocellulose membranes. The membranes were blocked in 5% non-fat milk prepared in PBS containing 0.1% Tween-20 (TPBS) for 1 h. After blocking, the membranes were incubated with specific primary antibodies: cdc2 (#POH1, Cell Signaling), p21^Waf1/Cip1 (#12D1, Cell Signaling), p53 (#1C12, Cell Signaling) and β-Actin (#8H10D10, Cell Signaling) overnight at 4° C, then washed and incubated with horseradish peroxidase (HRP)-conjugated secondary antibodies for 1h at room temperature. All of antibodies were diluted 1:1000 in 5% milk in TPBS. Finally, the membranes were washed and incubated with a SuperSignal™ West Pico Chemiluminescent Substrate (Thermo Scientific). The chemiluminescence signals were captured using a ChemiDoc™ XRS+ System (BioRad). The experiments were performed at least three times. Densitometric analysis was performed using ImageJ 1.41 software (Wayne Rasband, National Institutes of Health, USA).

[8] = tested on: HCT116; set-up: method as in PMID 25329549; settings: 96 h incubation, MTS; cited from earlier work
[9] = tested on: Ndrg1; assay: mRNA expression (Real-Time PCR) of Ndrg1; type: cell-based, human; settings: HCT116, TSC 1 µM, 24 h
Procedure: as §3

[10] = tested on: cdc2; assay: Western blot of cdc2; type: cell-based, human; settings: HCT116, 1 µM
Procedure: as §4

[11] = tested on: CAT; assay: mRNA expression (Real-Time PCR) of CAT; type: cell-based, human; settings: HCT116, TSC 1 µM, after the first 12 h
Procedure: as §3

[12] = tested on: NHDF; assay: MTS cytotoxicity assay, normal fibroblasts; type: cell-based, human; settings: 96 h incubation
Procedure: as §1

[13] = 96 h, 20 µM CuSO4 added, read-out: Activity - IC50 MCF-7+ Cu^2+
[14] = 96 h, 20 µM FeCl3 added, read-out: Activity - IC50 MCF-7+ Fe^3+
[15] = 96 h incubation, MTS, read-out: Activity - IC50 MCF-7
[16] = 96 h, 20 µM CuSO4 added, read-out: Activity - IC50 HCT116+ Cu^2+
[17] = 96 h, 20 µM FeCl3 added, read-out: Activity - IC50 HCT116+ Fe^3+

SMILES	IC50 [1] [nM]	IC50 [2, 13] [nM]	IC50 [2, 14] [nM]	IC50 [2, 15] [nM]	IC50 [3, 16] [nM]	IC50 [3, 17] [nM]	mRNA expression of MnSOD [4]	level of ROS, normalized to untreated cells [5]	% hypochromism [6] [%]	Changes in absorbance [6]	Δε [6] [M⁻¹ cm⁻¹]	blue/red shift [6] [nm]	expression of p21 protein (densitometric analysis) [7]	IC50 [8] [nM]	mRNA expression of Ndrg1 [9]	expression of cdc2 protein (densitometric analysis) [10]	IC50 ([3]; 96 h incubation, MTS, read-out: Activity - IC50 HCT116) [nM]	improvement in cytotoxicity after interacting with Cu^2+ ([3]; HCT116 cells, 20 µM CuSO4)	mRNA expression of CAT [11]	IC50 [12] [nM]
S=C(NN=C(c1ccccn1)c1ccccn1)N1CCN(c2cnccn2)CC1 [Compound 3c]	13.85 ± 0.03	4.41 ± 1.5	16.6 ± 2.25	25.6 ± 6.74	4.95 ± 1.64	29.5 ± 3.69	large drop	only a minute increase	28.5	hypochromism	3220.0	2	marked up-regulation	37.8 ± 3.05	strongest	strongest decreasing effect				
FC(F)(F)c1cnc(N2CCN(C(=S)NN=Cc3ccc4ccccc4n3)CC2)c(Cl)c1 [Compound 1c]		4.48 ± 1.18	39.1 ± 6.51	17.2 ± 2.71	7.19 ± 1.84	70.8 ± 7.28			22.6	hypochromism	2695.6	4	marked up-regulation				72.1 ± 9.4	more than a ten-fold increase	higher	17100
